Patent publication US11098038B2, “Imidazole-based anticancer agents and derivatives thereof, and methods of making and using same” (The University of Toledo, priority 2017, dated 2021)

How the values were obtained:
PC-3 = assay: NCI 60 screen, PC-3; format: cell-based; settings: Homo sapiens, Prostatic
Method: (§1) The compounds synthesized were tested at the National Cancer Institute (NCI) for anti-proliferative activity in the 60 human tumor cell line assay.

OVCAR-4 = assay: NCI 60 screen, OVCAR-4; format: cell-based; settings: Homo sapiens, Ovarian
Method: as §1

T-47D = assay: NCI 60 screen, T-47D; format: cell-based; settings: Homo sapiens, T47D, Breast
Method: as §1

SR = assay: NCI 60 screen, SR; format: cell-based; settings: Homo sapiens, Leukemia
Method: as §1

IGROV1 = assay: NCI 60 screen, IGROV1; format: cell-based; settings: Homo sapiens, IGROV-1, Ovarian
Method: as §1

NCI-H226 = assay: NCI 60 screen, NCI-H226; format: cell-based; settings: Homo sapiens, Non-Small Cell Lung
Method: as §1

CCRF-CEM = assay: NCI 60 screen, CCRF-CEM; format: cell-based; settings: Homo sapiens, Leukemia
Method: as §1

SNB-75 = assay: NCI 60 screen, SNB-75; format: cell-based; settings: Homo sapiens, CNS
Method: as §1

RPMI-8226 = assay: NCI 60 screen, RPMI-8226; format: cell-based; settings: Homo sapiens, Leukemia
Method: as §1

A549/ATCC = assay: NCI 60 screen, A549/ATCC; format: cell-based; settings: Homo sapiens, Non-Small Cell Lung
Method: as §1

NCI-H522 = assay: NCI 60 screen, NCI-H522; format: cell-based; settings: Homo sapiens, Non-Small Cell Lung
Method: as §1

U251 = assay: NCI 60 screen, U251; format: cell-based; settings: Homo sapiens, U-251, CNS
Method: as §1

CAKI-1 = assay: NCI 60 screen, CAKI-1; format: cell-based; settings: Homo sapiens, Renal
Method: as §1

NCI-460 = assay: NCI 60 screen, NCI-460; format: cell-based; settings: Homo sapiens, Non-Small Cell Lung
Method: as §1

M14 = assay: NCI 60 screen, M14; format: cell-based; settings: Homo sapiens, Melanoma
Method: as §1

BT-549 = assay: NCI 60 screen, BT-549; format: cell-based; settings: Homo sapiens, Breast
Method: as §1

HL-60(TB) = assay: NCI 60 screen, HL-60(TB); format: cell-based; settings: Homo sapiens, Leukemia
Method: as §1

MALME-3M = assay: NCI 60 screen, MALME-3M; format: cell-based; settings: Homo sapiens, Melanoma
Method: as §1

HCT15 = assay: NCI 60 screen, HCT15; format: cell-based; settings: Homo sapiens, HCT-15, Colon
Method: as §1

ACHN = assay: NCI 60 screen, ACHN; format: cell-based; settings: Homo sapiens, Renal
Method: as §1

UACC-62 = assay: NCI 60 screen, UACC-62; format: cell-based; settings: Homo sapiens, Melanoma
Method: as §1

SK-OV-3 = assay: NCI 60 screen, SK-OV-3; format: cell-based; settings: Homo sapiens, Ovarian
Method: as §1

SNB-19 = assay: NCI 60 screen, SNB-19; format: cell-based; settings: Homo sapiens, CNS
Method: as §1

RXF393 = assay: NCI 60 screen, RXF393; format: cell-based; settings: Homo sapiens, RXF 393, Renal
Method: as §1

SK-MEL-2 [1] = assay: NCI 60 screen, SK-MEL-2 (first line); format: cell-based; settings: Homo sapiens; Melanoma, SK-MEL-2 (first of two lines so named, r37)
Method: as §1

HCT-116 = assay: NCI 60 screen, HCT-116; format: cell-based; settings: Homo sapiens, Colon
Method: as §1

TK-10 = assay: NCI 60 screen, TK-10; format: cell-based; settings: Homo sapiens, Renal
Method: as §1

K-562 = assay: NCI 60 screen, K-562; format: cell-based; settings: Homo sapiens, K562, Leukemia
Method: as §1

LOX IMVI = assay: NCI 60 screen, LOX IMVI; format: cell-based; settings: Homo sapiens, Melanoma
Method: as §1

SK-MEL-2 [2] = assay: NCI 60 screen, SK-MEL-2 (second line); format: cell-based; settings: Homo sapiens; Melanoma, SK-MEL-2 (second of two lines so named, r38)
Method: as §1

HT29 = assay: NCI 60 screen, HT29; format: cell-based; settings: Homo sapiens, HT-29, Colon
Method: as §1

SW-620 = assay: NCI 60 screen, SW-620; format: cell-based; settings: Homo sapiens, Colon
Method: as §1

HOP-62 = assay: NCI 60 screen, HOP-62; format: cell-based; settings: Homo sapiens, Non-Small Cell Lung
Method: as §1

786-0 = assay: NCI 60 screen, 786-0; format: cell-based; settings: Homo sapiens, Renal
Method: as §1

MDA-MB-231/ATCC = assay: NCI 60 screen, MDA-MB-231/ATCC; format: cell-based; settings: Homo sapiens, Breast
Method: as §1

SK-MEL-5 = assay: NCI 60 screen, SK-MEL-5; format: cell-based; settings: Homo sapiens, Melanoma
Method: as §1

NCI-H23 = assay: NCI 60 screen, NCI-H23; format: cell-based; settings: Homo sapiens, Non-Small Cell Lung
Method: as §1

MDA-MB-435 = assay: NCI 60 screen, MDA-MB-435; format: cell-based; settings: Homo sapiens, Melanoma
Method: as §1

MOLT-4 = assay: NCI 60 screen, MOLT-4; format: cell-based; settings: Homo sapiens, Leukemia
Method: as §1

DU-145 = assay: NCI 60 screen, DU-145; format: cell-based; settings: Homo sapiens, Prostatic
Method: as §1

HS 578T = assay: NCI 60 screen, HS 578T; format: cell-based; settings: Homo sapiens, Breast
Method: as §1

UACC-257 = assay: NCI 60 screen, UACC-257; format: cell-based; settings: Homo sapiens, Melanoma
Method: as §1

SF-268 = assay: NCI 60 screen, SF-268; format: cell-based; settings: Homo sapiens, CNS
Method: as §1

EKVX = assay: NCI 60 screen, EKVX; format: cell-based; settings: Homo sapiens, Non-Small Cell Lung
Method: as §1

SN12C = assay: NCI 60 screen, SN12C; format: cell-based; settings: Homo sapiens, Renal
Method: as §1

COLO 205 = assay: NCI 60 screen, COLO 205; format: cell-based; settings: Homo sapiens, Colon
Method: as §1

KM12 = assay: NCI 60 screen, KM12; format: cell-based; settings: Homo sapiens, Colon
Method: as §1

OVCAR-5 = assay: NCI 60 screen, OVCAR-5; format: cell-based; settings: Homo sapiens, Ovarian
Method: as §1

SF-295 = assay: NCI 60 screen, SF-295; format: cell-based; settings: Homo sapiens, CNS
Method: as §1

SF-539 = assay: NCI 60 screen, SF-539; format: cell-based; settings: Homo sapiens, CNS
Method: as §1

HCC-2998 = assay: NCI 60 screen, HCC-2998; format: cell-based; settings: Homo sapiens, Colon
Method: as §1

MDA-MB-468 = assay: NCI 60 screen, MDA-MB-468; format: cell-based; settings: Homo sapiens, Breast
Method: as §1

HOP-92 = assay: NCI 60 screen, HOP-92; format: cell-based; settings: Homo sapiens, Non-Small Cell Lung
Method: as §1

UO-31 = assay: NCI 60 screen, UO-31; format: cell-based; settings: Homo sapiens, Renal
Method: as §1

MCF7 = assay: NCI 60 screen, MCF7; format: cell-based; settings: Homo sapiens, Breast
Method: as §1

NCI/ADR-RES = assay: NCI 60 screen, NCI/ADR-RES; format: cell-based; settings: Homo sapiens, Ovarian
Method: as §1

OVCAR-8 = assay: NCI 60 screen, OVCAR-8; format: cell-based; settings: Homo sapiens, Ovarian
Method: as §1

NCI-322M = assay: NCI 60 screen, NCI-322M; format: cell-based; settings: Homo sapiens, Non-Small Cell Lung
Method: as §1

OVCAR-3 = assay: NCI 60 screen, OVCAR-3; format: cell-based; settings: Homo sapiens, Ovarian
Method: as §1

A498 = assay: NCI 60 screen, A498; format: cell-based; settings: Homo sapiens, Renal
Method: as §1

SMILES: Cn1ccnc1C(=O)/C=C/c1ccc(CC(=O)Nc2ccc(F)cc2)cc1 [Compound 28, (E)-N-(4-fluorophenyl)-2-(4-(3-(1-methyl-1H-imidazol-2-yl)-3-oxoprop-1-en-1-yl)phenyl)acetamide]
- GI50 (PC-3): 1.99 µM
- GI50 (OVCAR-4): 5.68 µM
- GI50 (T-47D): 8.34 µM
- GI50 (SR): 0.51 µM
- GI50 (IGROV1): 2.93 µM
- GI50 (NCI-H226): 8.57 µM
- GI50 (CCRF-CEM): 2 µM
- GI50 (SNB-75): 3.74 µM
- GI50 (RPMI-8226): 1.02 µM
- GI50 (A549/ATCC): 6.43 µM
- GI50 (NCI-H522): 3.34 µM
- GI50 (U251): 1.4 µM
- GI50 (CAKI-1): 3.14 µM
- GI50 (NCI-460): 1.8 µM
- GI50 (M14): 3.23 µM
- GI50 (BT-549): 1.32 µM
- GI50 (HL-60(TB)): 1.6 µM
- GI50 (MALME-3M): 5.28 µM
- GI50 (HCT15): 1.29 µM
- GI50 (ACHN): 5.74 µM
- GI50 (UACC-62): 3.51 µM
- GI50 (SK-OV-3): 9.81 µM
- GI50 (SNB-19): 2.74 µM
- GI50 (RXF393): 3.89 µM
- GI50 (SK-MEL-2 [1]): 7.01 µM
- GI50 (HCT-116): 0.99 µM
- GI50 (TK-10): 10.5 µM
- GI50 (K-562): 0.82 µM
- GI50 (LOX IMVI): 0.71 µM
- GI50 (SK-MEL-2 [2]): 4.47 µM
- GI50 (HT29): 2.27 µM
- GI50 (SW-620): 1.97 µM
- GI50 (HOP-62): 4.68 µM
- GI50 (786-0): 1.37 µM
- GI50 (MDA-MB-231/ATCC): 2.96 µM
- GI50 (SK-MEL-5): 4.45 µM
- GI50 (NCI-H23): 3.04 µM
- GI50 (MDA-MB-435): 4.25 µM
- GI50 (MOLT-4): 2.32 µM
- GI50 (DU-145): 1.24 µM
- GI50 (HS 578T): 1.5 µM
- GI50 (UACC-257): 6.99 µM
- GI50 (SF-268): 2.89 µM
- melting point: 213 °C
- GI50 (EKVX): 5.5 µM
- GI50 (SN12C): 1.62 µM
- GI50 (COLO 205): 4.39 µM
- GI50 (KM12): 1.62 µM
- GI50 (OVCAR-5): 4.36 µM
- GI50 (SF-295): 4.55 µM
- GI50 (SF-539): 3.59 µM
- GI50 (HCC-2998): 3.78 µM
- GI50 (MDA-MB-468): 1.72 µM
- GI50 (HOP-92): 4.51 µM
- GI50 (UO-31): 1.72 µM
- GI50 (MCF7): 1.04 µM
- GI50 (NCI/ADR-RES): 4.24 µM
- GI50 (OVCAR-8): 5.71 µM
- GI50 (NCI-322M): 2.07 µM
- GI50 (OVCAR-3): 0.96 µM
- GI50 (A498): 5.56 µM
